Patent US10828269B2, “Reducing muscle atrophy by administering astaxanthin” (FUJI CHEMICAL INDUSTRIES CO., LTD., priority 2004, dated 2020)

Tests used:
Assay in all cases: GENEchip mRNA expression in gastrocnemius
Format in all cases: in vivo, rat
[1] = system: murine thymoma viral (v-akt) oncogene homolog 2; conditions: probe 1387353_at
Description: (§1) After the period of test breeding, kidney was removed and frozen at −80° C. Using an LM200 system (Olympus Corporation), the renal glomerulus was cut from kidney of mice while keeping low temperature. tRNA of renal glomerulus was extracted using tRNA extraction regent “Isogen” (produced by Nippon Gene Co., Ltd.), and then preparation of cRNA and hybridization were performed according to the Affymetrix GeneChip Eukaryotic Small Sample Target Labeling Assay Ver. II.
(§2) (1) Synthesis of first strand cDNA: 1 μL of total RNA solution and 1 of 5 μM T7-Oligo(dT) primer were mixed, heated at 70° C. for 6 minutes, and then cooled at 4° C. for 2 minutes. 3 μL of RT_Premix_1 (1.5 μL DEPC-treated water, 4 μL 5× First strand Buffer, 2 μL DTT (0.1 M), 1.5 μL dNTP Mix (10 mM), 1 μL RNase inhibitor (40 U/μL), and 2 μL Super-Script II (200 U/μL)) was added and reverse transcribed at 42° C. for 1 hour. The sample was heated at 70° C. for 10 minutes to inactivate Super Script II, and then cooled to 4° C. (2) Synthesis of second strand cDNA: 32.5 μl of SS_Premix_1 (91 μL DEPC-treated water, 30 μL 5× Second Strand Buffer, 3 μL dNTP (10 mM), 1 μL E. coli DNA ligase (10 U/μL); 4 μL E. coli DNA polymerase (10 U/μL), and 1 μL RNase H (2 U/μL)) was added to the first strand cDNA solution and allowed to react for 2 hours at 16° C. (3) To the resulting cDNA, was added 1 μL T4 DNA polymerase (5 U/μl) and allowed to react for 10 minutes at 16° C., and purified by ethanol precipitation. (4) In vitro transcription: To the dried double-stranded cDNA pellet, was added 10 μL of reagents (4 μL DEPC-treated water, 4 μL premixed NTPs, 1 μL 10× reaction buffer, and 1 μL 10× enzyme mix), and allowed to react at 37° C. in a water bath for 6 hours. (5) First cycle cRNA was purified using the RNeasy Mini Kit in accordance with the protocol in the handbook (QIAGEN). (6) Subsequently, for the amplification and labeling, the cRNA sample was mixed with random primers (0.2 μg/μL), treated at 70° C. for 10 minutes, cooled on ice for 2 minutes, 5 μL of RT_Premix_2 (5× First Strand Buffer, DTT (0.1 M), dNTP mix (10 mM), RNase inhibitor (40 U/μL), and SuperScript II (200 U/μL) was added, and allowed to react at 42° C. for 1 hour. (7) Next, Second Sstrand cDNA synthesis was carried out by adding 5 μM T7-Oligo(dT) promoter treating at 70° C. for 6 minutes, cooling at 4° C., and adding 62 μL of SS_Premix_2 (43 μL it DEPC-treated water, 15 μL 5× Second Strand Buffer, 1.5 μL dNTP mix (10 mM), and 2 μL E. coli DNA polymerase (10 U/μL)). (8) To the resulting cDNA, was treated added 1 μL of T4 DNA polymerase (5 U/μL), allowed to react at 16° C. for 10 minutes, and purified by ethanol precipitation. (9) To perform in vitro transcription and labeling with the ENZO BioArray High Yield RNA Transcript Labeling Kit, 40 μL of reagents (22 μL DEPC-treated solution, 4 μL 10×HY reaction buffer, 4 μL 10× biotin-labeled ribonucleotides, 4 μL 10×DTT, 4 μL 10× RNase to inhibition mix, and 2 μL 20× T7 RNA polymerase) were added, and allowed to react at 37° C. for 4 hours. (10) Labeled cRNA target was purified with RNeasy columns. (11) The fragmentation and hybridization were performed according to “GeneChip Expression Analysis Technical Manual”.
(§3) The prepared labeled cRNA was hybridized to a GeneChip “mouse Expression Set 430A, representing a total of 22,690 mouse transcripts” (Affymetrix). For data analysis, the GeneChip Analysis Suite Ver. 5.1 (Affymetrix) was used. All microarrays were scaled to a target intensity of 1000 and were compared with background, noise, and overall staining intensity. Differentially expressed transcripts were identified by algorithms of the software y Affymetrix.
(§4) 9-week-old Wistar male rats were bred each being fed a normal diet for breeding and water ad libitum under the conditions with a 12 hours light-dark cycle at a temperature of 21° C. to 25° C. and were accustomed to the environment in advance. […]

[2] = system: Protein phosphatase 3, catalytic subunit gamma isoform; conditions: probe 1398469_at
Description: [The source words this procedure for another organism and reports this organism under the same test.] as §1, §2, §3, §4

[3] = system: very low density lipoprotein receptor; conditions: probe 1369098_at
Description: as §1, §2, §3, §4

[4] = denervated left leg gastrocnemius, astaxanthin group vs control group
[5] = denervated left leg gastrocnemius, astaxanthin-administered group
[6] = right leg (control) gastrocnemius, astaxanthin group vs control group
[7] = right leg (control) gastrocnemius, astaxanthin-administered group

CC1=C(/C=C/C(C)=C/C=C/C(C)=C/C=C/C=C(C)/C=C/C=C(C)/C=C/C2=C(C)C(=O)C(O)CC2(C)C)C(C)(C)CC(O)C1=O (stereo not drawn) [astaxanthin, 3,3′-dihydroxy-β,β-carotene-4,4′-dione]
gene expression intensity ratio ad/nd [1, 4]: 0.67
luminescence intensity ad [1, 5]: 1042.6
gene expression intensity ratio ac/nc [1, 6]: 0.83
luminescence intensity ac [1, 7]: 715.4
gene expression intensity ratio ad/nd [2, 4]: 1.90
luminescence intensity ad [2, 5]: 333.1
gene expression intensity ratio ac/nc [2, 6]: 1.09
luminescence intensity ac [2, 7]: 523.6
gene expression intensity ratio ad/nd [3, 4]: 1.49
luminescence intensity ad [3, 5]: 318
gene expression intensity ratio ac/nc [3, 6]: 1.00
luminescence intensity ac [3, 7]: 500.5
